Experiments:
[1] = test system: Plasmopara viticola; test: Plasmopara test (grapevine) / protective; format: in vivo; conditions: young grapevine plants, protective spray, 10 ppm active ingredient, evaluation 6 days after inoculation; 0% = control, 100% = no infection
Procedure: Plasmopara Test (Grapevine)/Protective
• Solvent: 24.5 parts by weight of acetone • 24.5 parts by weight of dimethylacetamide • Emulsifier: 1 part by weight of alkylaryl polyglycol ether
To produce a suitable active ingredient formulation, 1 part by weight of active ingredient is mixed with the stated amounts of solvent and emulsifier, and the concentrate is diluted with water to the desired concentration.
To test for protective efficacy, young plants are sprayed with the active ingredient formulation at the stated application rate. After the spray coating has dried on, the plants are inoculated with an aqueous spore suspension of Plasmopara viticola and then remain in an incubation cabin at approx. 20° C. and 100% relative air humidity for 1 day. Subsequently, the plants are placed in a greenhouse at approx. 21° C. and approx. 90% air humidity for 4 days. The plants are then moistened and placed in an incubation cabin for 1 day.
Evaluation follows 6 days after the inoculation. 0% means an efficacy which corresponds to that of the control, whereas an efficacy of 100% means that no infection is observed.
In this test, the following inventive compounds show, at an active ingredient concentration of 10 ppm, an efficacy of 70% or more: […]

[2] = test system: Phytophthora infestans; format: in vivo; conditions: young tomato plants, protective spray, 100 ppm active ingredient, evaluation 7 days after inoculation; 0% = control, 100% = no infection
[3] = logP by HPLC on reversed-phase columns (C 18), EEC directive 79/831 Annex V.A8; format: physicochemical; conditions: LC-MS; for chromatographic logP: reversed-phase HPLC column (C18), read-out: Log P [a]; for chromatographic logP / Log P [a]: acidic range, pH 2.7, 0.1% aqueous formic acid and acetonitrile; for Log P [b]: neutral range, pH 7.8, 0.001 molar aqueous ammonium hydrogencarbonate and acetonitrile
Procedure: The logP values were measured according to EEC directive 79/831 Annex V.A8 by HPLC (High Performance Liquid Chromatography) on reversed-phase columns (C 18), using the methods below:
^[a] The LC-MS determination in the acidic range is effected at pH 2.7 with 0.1% aqueous formic acid and acetonitrile (contains 0.1% formic acid) as eluents; linear gradient from 10% acetonitrile to 95% acetonitrile.
^[b] The LC-MS determination in the neutral range is effected at pH 7.8 using 0.001 molar aqueous ammonium hydrogencarbonate solution and acetonitrile as eluents; linear gradient from 10% acetonitrile to 95% acetonitrile.
The calibration is effected with unbranched alkan-2-ones (having 3 to 16 carbon atoms) with known logP values (logP values determined on the basis of the retention times by linear interpolation between two successive alkanones).

| Compound | Eff. % [1] | Eff. % [2] | chromatographic logP [3] | Log P [a] [3] | Log P [b] [3] |
| --- | --- | --- | --- | --- | --- |
| CS(=O)(=O)Nc1ccccc1C1CC(c2csc(C3CCN(C(=O)Nc4cc(C(F)F)ccc4C(F)F)CC3)n2)=NO1 (stereo not shown) [Ex. 6, N-[2,5-Bis(difluoromethyl)phenyl]-4-[4-(5-{2-[(methylsulphonyl)amino]phenyl}-4,5-dihydro-1,2-oxazol-3-yl)-1,3-thiazol-2-yl]piperidine-1-carboxamide] | 98% | 95% | 2.72 | – | – |
| C=CCOc1cccc(Cl)c1C1CC(c2csc(C3CCN(C(=O)Cn4nc(C(F)(F)F)cc4C)CC3)n2)=NO1 (racemic) [Ex. 50] | 100% | 70% | – | 3.94[a]; | 3.83[b] |
| C=CCOc1cccc(F)c1C1CC(c2csc(C3CCN(C(=O)Cn4nc(C(F)(F)F)cc4C)CC3)n2)=NO1 (racemic) [Ex. 51] | 100% | 85% | – | 3.7[a]; | 3.61[b] |
| C=CCOc1ccccc1C1CC(c2csc(C3CCN(C(=O)Nc4cc(C)ccc4C)CC3)n2)=NO1 (racemic) [Ex. 46] | 98% | 100% | – | 3.91[a]; | 3.81[b] |
| C#CCOc1ccccc1C1CC(c2csc(C3CCN(C(=O)Nc4cc(C)ccc4C)CC3)n2)=NO1 (racemic) [Ex. 45] | 96% | 100% | – | 3.43[a]; | 3.41[b] |
| C#CCOc1cccc(Cl)c1C1CC(c2csc(C3CCN(C(=O)Nc4cc(C)ccc4C)CC3)n2)=NO1 (racemic) [Ex. 38] | 100% | 94% | – | 3.68[a]; | 3.57[b] |
| COCCOc1cccc(F)c1C1CC(c2csc(C3CCN(C(=O)Cn4nc(C(F)(F)F)cc4C)CC3)n2)=NO1 (racemic) [Ex. 49] | 100% | 90% | – | 3.28[a]; | 3.17[b] |
| Cc1cc(C(F)(F)F)nn1CC(=O)N1CCC(c2nc(C3=NOC(c4cccc(C=O)c4)C3)cs2)CC1 (stereo not shown) [Ex. 1] | 98% | 100% | – | 2.83[a] | – |
| Cc1cc(C(F)(F)F)nn1CC(=O)N1CCC(c2nc(C3=NOC(c4ccc(OC(=O)C5CC5)cc4)C3)cs2)CC1 (racemic) [Ex. 47] | 86% | 100% | – | 3.49[a]; | 3.4[b] |
| Cc1cc(C(F)(F)F)nn1CC(=O)N1CCC(c2nc(C3=NOC(c4cccc(F)c4OC(=O)C4CC4)C3)cs2)CC1 (racemic) [Ex. 54] | 91% | 94% | – | 3.62[a]; | 3.5[b] |
| COCCOc1ccccc1C1CC(c2csc(C3CCN(C(=O)Cn4nc(C(F)(F)F)cc4C)CC3)n2)=NO1 (racemic) [Ex. 55] | 93% | 92% | – | 3.27[a]; | 3.25[b] |
| C#CCOc1cccc(F)c1C1(C)CC(c2csc(C3CCN(C(=O)Cn4nc(C)cc4C(F)F)CC3)n2)=NO1 (racemic) [Ex. 37] | 96% | 94% | – | 3.11[a]; | 3.12[b]; |
| Cc1cc(C(F)(F)F)nn1CC(=O)N1CCC(c2nc(C3=NOC(c4ccccc4COCC(F)(F)F)C3)cs2)CC1 (racemic) [Ex. 43] | 83% | 97% | – | 3.77[a] | – |
| Cc1cc(C(F)(F)F)nn1CC(=O)N1CCC(c2nc(C3=NOC(c4c(Cl)cccc4OC(=O)C4CC4)C3)cs2)CC1 (racemic) [Ex. 48] | 95% | 70% | – | 3.73[a]; | 3.64[b] |
| C=CCOc1cccc(F)c1C1CC(c2csc(C3CCN(C(=O)Nc4cc(C)ccc4C)CC3)n2)=NO1 (stereo not shown) [Ex. 25] | 100% | 100% | – | 3.64[a]; | 3.62[b] |
| C=CCOc1c(F)cccc1C1CC(c2csc(C3CCN(C(=O)Cn4nc(C(F)(F)F)cc4C)CC3)n2)=NO1 (racemic) [Ex. 52] | 98% | 97% | – | 3.97[a]; | 3.84[b] |
| Cc1ccc(Cl)cc1NC(=O)N1CCC(c2nc(C3=NOC(c4ccccc4C=O)C3)cs2)CC1 (stereo not shown) [Ex. 3, N-(5-Chloro-2-methylphenyl)-4-{4-[5-(2-formylphenyl)-4,5-dihydro-1,2-oxazol-3-yl]-1,3-thiazol-2-yl}piperidine-1-carboxamide] | 100% | 100% | 3.35 | – | – |
